# Experimental data from patent US10287258B2, “Certain (2S)-N-[(1S)-1-cyano-2-phenylethyl]-1,4-oxazepane-2-carboxamides as dipeptidyl peptidase 1 inhibitors” (AstraZeneca AB, priority 2014, dated 2019).
# Tests used:
# [1] = literature (Schmidt et al. 1984); cited from earlier work
# [2] = target: T1, recombinant human DPP1 (rhDPP1) (Homo sapiens (Human), UniProt P53634); assay: Test A2: Fluorescence assay for recombinant human (RH) DPP1; format: biochemical; conditions: Test A2 (Examples 36-37); 96.4 pM rhDPP1, 50 μM H-Gly-Arg-AMC, pH 5.0, rt
# T1 sequence (P53634 231-394): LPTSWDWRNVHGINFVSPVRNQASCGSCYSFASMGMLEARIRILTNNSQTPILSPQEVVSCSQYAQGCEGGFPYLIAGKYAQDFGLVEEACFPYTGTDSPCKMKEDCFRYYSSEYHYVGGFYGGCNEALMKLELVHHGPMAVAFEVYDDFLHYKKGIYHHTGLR
# T1 sequence (P53634 25-134): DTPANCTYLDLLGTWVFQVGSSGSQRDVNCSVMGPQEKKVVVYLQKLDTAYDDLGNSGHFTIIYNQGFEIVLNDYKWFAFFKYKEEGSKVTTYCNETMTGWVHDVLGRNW
# T1 sequence (P53634 395-463): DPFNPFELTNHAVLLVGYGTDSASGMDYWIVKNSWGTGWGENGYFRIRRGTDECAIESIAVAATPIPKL
# Experimental: Test A2: Fluorescence Assay for Recombinant Human (RH) DPP1
# The activity of DPP1 was determined by measuring the enzymatic release of aminomethyl coumarin (AMC) from the peptide substrate (H-Gly-Arg-AMC), which leads to an increase in fluorescence intensity at λex=350 nm and λem=450 nm. The assay was carried out in black 384 well plates in a final volume of 10 μl at rt. The assay conditions contained the following: 25 mM piperazine buffer pH 5.0; 50 mM NaCl, 5 mM DTT; 0.005 (v/v) Triton X-100; 50 μM H-Gly-Arg-AMC and 96.4 pM rhDPP1 Potential inhibitors were diluted in DMSO to generate 100× of the final assay concentration. The compounds were tested at 10 concentrations with half-log dilution steps (highest concentration typically 1 μM) and with a final DMSO concentration of 1% (v/v). Routinely, inhibitors were pre-incubated with rhDPP1 for 30 min prior to the addition of the peptide substrate to start the reaction for a further 30 min. After incubation the plates were read in a fluorescence plate reader using the above emission and excitation wavelengths. The pIC50 were determined using a 4-paramater logistic equation in a non-linear curve fitting routine (Smartfit, Genedata Screener®). […]
# [3] = Test B: In-vitro competitive aortic tissue binding assay; conditions: 100 μM compound, competition with [14C]4-amino-N-[(1S)-1-cyano-2-(4′-cyanobiphenyl-4-yl)ethyl]tetrahydro-2H-pyran-4-carboxamide, rat aortic homogenate
# Experimental: Test B: In-Vitro Competitive Aortic Tissue Binding Assay
# Aortic homogenate was prepared from the thoracic aortae of Han Wistar rats. Freshly isolated thoracic aortae were frozen, and later thawed and stripped of non-elastic material. […] Homogenate concentration was adjusted to 30 mg/mL in Puck's saline, and aliquots were stored at −80° C. until use. Positive and negative control compounds and test compounds were made up to 100 mM in DMSO, and added to 1 mL aliquots of aortic homogenate in Puck's saline for a final concentration of 100 μM. Homogenate samples were pre-incubated with test compounds at 37° C., rotating, overnight. [^14C]4-Amino-N-[(1S)-1-cyano-2-(4′-cyanobiphenyl-4-yl)ethyl]tetrahydro-2H-pyran-4-carboxamide was then added to all samples to a final concentration of 100 μM, and samples were incubated at 37° C., rotating, for a further 2 h. Protein was precipitated from each sample by the addition of 10 mL acetone, pre-chilled to −20° C. Samples were left overnight at −20° C. to allow complete precipitation. […] Precipitate was washed by resuspension in 10 mL 80% methanol in distilled water, and re-pelleted by centrifugation at 4,500× g at 4° C. for 20 min. […] After final wash, precipitate was air-dried, and dissolved overnight in 1 mL NCSII Tissue Solubiliser. 1 mL aliquots of supernatants were added to 5 mL Ultima Gold scintillation fluid (Perkin Elmer, MA, U.S.A.), and 1 mL solubilised pellets were added to 5 mL Hionic-Fluor scintillation fluid (Perkin Elmer, MA, U.S.A.). Radioactivity of samples was determined on a Beckman LS6500 multipurpose scintillation counter (Beckman Coulter, IN, U.S.A.). […] Duplicate samples were tested for each compound on each experimental occasion, and at least two experiments were run for each test compound. […] 1-way ANOVA and Bonferroni's multiple comparison tests were performed to calculate significance of differences from vehicle control.
# [4] = Rat quantitative whole-body autoradiography (QWBA) studies, aortic retention; format: in vivo
# [5] = target: T1, recombinant human DPP1 (rhDPP1); assay: Test A1: Fluorescence assay for recombinant human (RH) DPP1; format: biochemical; conditions: Test A1 (Examples 1-35); rhDPP1 ~50 pM, 100 μM H-Gly-Arg-AMC, pH 5.0, 22° C.
# Experimental: Test A1: Fluorescence Assay for Recombinant Human (RH) DPP1
# The activity of DPP1 was determined by measuring the enzymatic release of aminomethyl coumarin (AMC) from the peptide substrate (H-Gly-Arg-AMC), which leads to an increase in fluorescence intensity at λex=350 nm and λem=450 nm. The assay was carried out in black 384 well plates in a final volume of 50 μl at 22° C. The assay conditions contained the following: 25 mM piperazine buffer pH 5.0; 50 mM NaCl, 5 mM DTT; 0.01% (v/v) Triton X-100; 100 μM H-Gly-Arg-AMC and rhDPP1 (˜50 pM). […] Routinely, inhibitors were pre-incubated with rhDPP1 for 30-60 min prior to the addition of the peptide substrate to start the reaction for a further 60 min at 22° C.
smiles,measurement,setting,value
CC(c1ccc(Cl)c(Cl)c1)N1N=C(N)CC1=O (stereo not drawn) [muzolimine],retention in the aorta in QWBA studies,[1],retained selectively in the aorta
"CC(C)C[C@@H](/C=C/C(=O)N1CCc2ccccc21)NC(=O)[C@@H]1CNCCCO1.O=C(O)C(F)(F)F [Example 37, (2S)-2-[(2E,4S)-1-(2,3-Dihydro-1H-indol-1-yl)-6-methyl-1-oxohept-2-en-4-yl]-1,4-oxazepane-2-carboxamide trifluoroactetate]","DPP1 activity, pIC50",[2],8.28
N#Cc1ccc(-c2ccc(C[C@@H](C#N)NC(=O)[C@@H]3CCCCN3)cc2)cc1 [WO2009/074829 (Example 24)],Aortic Tissue Binding,[3],Binder
"N#Cc1ccc(-c2ccc(C[C@@H](C#N)NC(=O)C3(N)CCOCC3)cc2)cc1 [WO2010/128324 (Ex. 3), 4-amino-N-[(1S)-1-cyano-2-(4′-cyanobiphenyl-4-yl)ethyl]tetrahydro-2H-pyran-4-carboxamide]",Aortic Tissue Binding,[3],Strong binder reference
same,aortic retention in rat QWBA studies,[4],high level of aortic retention
"Cn1c(=O)oc2ccc(-c3ccc(C[C@@H](C#N)NC(=O)[C@@H]4CNCCCO4)cc3)cc21 [Example 2, (2S)-N-{(1S)-1-Cyano-2-[4-(3-methyl-2-oxo-2,3-dihydro-1,3-benzoxazol-5-yl)phenyl]ethyl}-1,4-oxazepane-2-carboxamide]",Aortic Tissue Binding,[3],No binder
Cn1c(=O)oc2ccc(-c3ccc(C[C@@H](C#N)NC(=O)[C@@H]4CCCCN4)cc3)cc21 [WO2009/074829 (Example 96)],Aortic Tissue Binding,[3],Medium binder
Cn1c(=O)oc2ccc(-c3ccc(C[C@@H](C#N)NC(=O)C4(N)CCOCC4)cc3)cc21 [WO2010/128324 (Example 17)],Aortic Tissue Binding,[3],Strong binder
CC[C@@H](/C=C/C(=O)N1CCc2ccccc21)NC(=O)[C@@H]1CNCCCO1.O=C(O)C(F)(F)F [Example 36],"DPP1 activity, pIC50",[2],8.3
"N#C[C@H](Cc1ccc(-c2ccc3scnc3c2)cc1)NC(=O)[C@@H]1CNCCCO1 [Example 33, (2S)-N-{(1S)-2-[4-(1,3-Benzothiazol-5-yl)phenyl]-1-cyanoethyl}-1,4-oxazepane-2-carboxamide]","DPP1 activity, pIC50",[5],7.21
"CN1C(=O)C(F)(F)c2ccc(-c3ccc(C[C@@H](C#N)NC(=O)[C@@H]4CNCCCO4)cc3)cc21 [Example 14, (2S)-N-{(1S)-1-Cyano-2-[4-(3,3-difluoro-1-methyl-2-oxo-2,3-dihydro-1H-indol-6-yl)phenyl]ethyl}-1,4-oxazepane-2-carboxamide]","DPP1 activity, pIC50",[5],7.78
"N#C[C@H](Cc1ccc(-c2ccc3oc(=O)n(CC(F)(F)F)c3c2)cc1)NC(=O)[C@@H]1CNCCCO1 [Example 28, (2S)-N-[(1S)-1-Cyano-2-{4-[2-oxo-3-(2,2,2-trifluoroethyl)-2,3-dihydro-1,3-benzoxazol-5-yl]phenyl}ethyl]-1,4-oxazepane-2-carboxamide]","DPP1 activity, pIC50",[5],8.09
